Laboratory results reported in PMC9862037, “Interactions of Mycotoxin Alternariol with Cytochrome P450 Enzymes and OATP Transporters” (Metabolites, 2022).

Assays:
[1] = target: T1, CYP2C9 (Homo sapiens, UniProt P11712); test: biochemical
T1 construct: purchased Merck; host or cells: yeast (inferred from the description of the CYPnull control, 'processed identically')
Protocol: The potential inhibitory effects of AOH on CYP2C9, 2C19, 2D6, and 3A4 enzymes were tested in vitro employing CypExpress human kits, using the substrates recommended by the U.S. Food and Drug Administration (FDA; https://www.fda.gov/drugs/drug-interactions-labeling/drug-development-and-drug-interactions-table-substrates-inhibitors-and-inducers; accessed on 19 December 2022) (diclofenac, S-mephenytoin, dextromethorphan, and testosterone, respectively). […] In these assays, the substrates and products were quantified by HPLC-UV [28].
(§1) IC50 values were calculated by sigmoidal fitting (Hill1), using the Origin (version 2018, OriginLab Corporation, Northampton, MA, USA) software.
(§2) After CYP450 incubations, the product formation rate was investigated using an integrated HPLC system (Jasco, Tokyo, Japan) built up from an autosampler (AS-4050), a binary pump (PU-4180), and a UV detector (UV-975). Chromatographic data were evaluated employing ChromNAV2 software (Jasco, Tokyo, Japan). Quantitative determinations of 4′-hydroxydiclofenac and diclofenac (CYP2C9), 4-hydroxymephenytoin and mephenytoin (CYP2C19), dextromethorphan and dextrorphan (CYP2D6), as well as testosterone and 6β-hydroxytestosterone (CYP3A4) were carried out as previously reported, without modifications.

[2] = target: T2, CYP2C19 (Homo sapiens, UniProt P33261); format: biochemical
T2 construct: purchased Merck; host or cells: yeast (inferred from the description of the CYPnull control, 'processed identically')
Protocol: (§3) The potential inhibitory effects of AOH on CYP2C9, 2C19, 2D6, and 3A4 enzymes were tested in vitro employing CypExpress human kits, using the substrates recommended by the U.S. Food and Drug Administration (FDA; https://www.fda.gov/drugs/drug-interactions-labeling/drug-development-and-drug-interactions-table-substrates-inhibitors-and-inducers; accessed on 19 December 2022) (diclofenac, S-mephenytoin, dextromethorphan, and testosterone, respectively). The impacts of increasing concentrations of AOH (0.00, 0.05, 0.50, 2.0, 5.0, 10, 25, 30, and 50 μM) were examined on diclofenac 4′-hydroxylation (CYP2C9), S-mephenytoin 4-hydroxylation (CYP2C19), dextromethorphan demethylation (CYP2D6), and testosterone 6β-hydroxylation (CYP3A4) as described previously, without modifications. In these assays, the substrates and products were quantified by HPLC-UV [28].
as §1, §2

[3] = target: T3, CYP2D6 (Homo sapiens, UniProt P10635); format: biochemical; details: 50 μM AOH
T3 construct: purchased Merck; host or cells: yeast (inferred from the description of the CYPnull control, 'processed identically')
Protocol: as §3, §1, §2

[4] = target: T4, CYP3A4 (Homo sapiens, UniProt P08684); format: biochemical; details: plateau above 10 μM AOH
T4 construct: purchased Merck; host or cells: yeast (inferred from the description of the CYPnull control, 'processed identically')
Protocol: as §3, §1, §2

T2 sequence (P33261 whole entry): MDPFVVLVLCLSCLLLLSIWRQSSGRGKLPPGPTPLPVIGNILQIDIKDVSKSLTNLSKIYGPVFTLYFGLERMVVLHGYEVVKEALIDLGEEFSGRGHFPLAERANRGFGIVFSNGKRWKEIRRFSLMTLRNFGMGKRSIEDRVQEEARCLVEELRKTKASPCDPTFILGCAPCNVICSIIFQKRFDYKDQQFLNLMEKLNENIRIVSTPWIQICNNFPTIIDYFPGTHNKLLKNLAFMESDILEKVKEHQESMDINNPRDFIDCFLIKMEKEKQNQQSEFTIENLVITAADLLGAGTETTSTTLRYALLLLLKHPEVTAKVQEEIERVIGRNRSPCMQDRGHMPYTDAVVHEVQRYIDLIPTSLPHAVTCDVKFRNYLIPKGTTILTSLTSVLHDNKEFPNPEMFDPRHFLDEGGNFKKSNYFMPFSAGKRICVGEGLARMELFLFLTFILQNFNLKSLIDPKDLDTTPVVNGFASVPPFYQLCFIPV
T1 sequence (P11712 whole entry): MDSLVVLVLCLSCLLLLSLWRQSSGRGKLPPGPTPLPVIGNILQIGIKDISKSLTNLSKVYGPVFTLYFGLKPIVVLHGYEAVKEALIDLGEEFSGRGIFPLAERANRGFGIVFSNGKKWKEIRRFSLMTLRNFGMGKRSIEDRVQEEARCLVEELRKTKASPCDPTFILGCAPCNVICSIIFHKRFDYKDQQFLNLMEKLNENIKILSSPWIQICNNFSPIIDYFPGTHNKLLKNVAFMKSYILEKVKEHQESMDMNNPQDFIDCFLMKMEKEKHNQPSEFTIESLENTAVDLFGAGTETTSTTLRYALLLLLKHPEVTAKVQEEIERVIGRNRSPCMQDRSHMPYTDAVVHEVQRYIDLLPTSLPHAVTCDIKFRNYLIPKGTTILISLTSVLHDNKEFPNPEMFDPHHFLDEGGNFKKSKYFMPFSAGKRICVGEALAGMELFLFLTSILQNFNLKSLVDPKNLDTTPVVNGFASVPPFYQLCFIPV
T3 sequence (P10635 whole entry): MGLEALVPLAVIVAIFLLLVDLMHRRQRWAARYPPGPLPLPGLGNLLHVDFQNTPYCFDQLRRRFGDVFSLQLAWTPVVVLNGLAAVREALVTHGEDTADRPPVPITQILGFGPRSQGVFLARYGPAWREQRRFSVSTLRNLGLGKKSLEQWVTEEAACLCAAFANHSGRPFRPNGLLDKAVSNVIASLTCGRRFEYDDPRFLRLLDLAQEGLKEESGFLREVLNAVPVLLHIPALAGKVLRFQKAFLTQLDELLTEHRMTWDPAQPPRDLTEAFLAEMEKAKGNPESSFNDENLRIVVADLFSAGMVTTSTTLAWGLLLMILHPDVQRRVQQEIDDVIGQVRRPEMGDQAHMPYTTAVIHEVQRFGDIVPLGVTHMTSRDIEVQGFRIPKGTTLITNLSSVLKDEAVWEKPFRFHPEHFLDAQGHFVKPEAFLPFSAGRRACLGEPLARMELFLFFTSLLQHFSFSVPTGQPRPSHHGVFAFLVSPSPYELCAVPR
T4 sequence (P08684 whole entry): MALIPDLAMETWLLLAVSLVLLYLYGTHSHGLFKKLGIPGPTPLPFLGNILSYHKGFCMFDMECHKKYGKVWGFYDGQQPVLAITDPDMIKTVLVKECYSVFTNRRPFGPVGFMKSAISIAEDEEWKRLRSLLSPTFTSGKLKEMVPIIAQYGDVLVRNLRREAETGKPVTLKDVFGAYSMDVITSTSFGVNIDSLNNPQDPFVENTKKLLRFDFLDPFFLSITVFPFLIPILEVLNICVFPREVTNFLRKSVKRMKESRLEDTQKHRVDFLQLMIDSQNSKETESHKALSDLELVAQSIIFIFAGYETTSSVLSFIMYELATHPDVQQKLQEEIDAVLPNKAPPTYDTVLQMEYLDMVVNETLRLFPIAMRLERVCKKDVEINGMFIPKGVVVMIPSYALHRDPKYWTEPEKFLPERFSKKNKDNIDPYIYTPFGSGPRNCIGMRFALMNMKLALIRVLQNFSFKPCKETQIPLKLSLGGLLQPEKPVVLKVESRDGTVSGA

Structure (SMILES): Cc1cc(O)cc2oc(=O)c3c(O)cc(O)cc3c12 [AOH, Alternariol]
- decrease in the product formation (CYP2C9) ([1]; 50 μM AOH): > 80%
- IC50 ([1]; diclofenac 4'-hydroxylation, read-out: IC50, CYP2C9 inhibition): 7.4 µM
- CYP2C19 inhibition at 5 μM ([2]; 5 μM AOH, p < 0.01): significantly (p < 0.01) inhibited
- decrease in 4-hydroxymephenytoin production (CYP2C19) ([2]; 50 μM AOH (highest concentration)): 55%
- effect on CYP2D6-catalyzed dextromethorphan demethylation [3]: not affected
- CYP3A4 inhibition (decrease in metabolite formation) [4]: approximately 40%
